US20090099218A1, “SYNTHESIS OF NOVEL TUBULIN POLYMERIZATION INHIBITORS: BENZOYLPHENYLUREA (BPU) SULFUR ANALOGS” (priority 2007, published 2009)

Legend:
LAPC-4 = assay: MTT growth inhibition, prostate cancer cell line LAPC-4; assay type: cell-based, human; conditions: MTT assay, average of three independent experiments
Experimental: (§1) This MTT assay was carried using human prostate cancer cell lines CWR22R, LAPC-4 and LnCap using Promega cell titer 96 nonradioactive cell proliferation kits. Cells were trypsinized and centrifuged at 1000 rpm for 5 minutes and the supernatant was aspirated. Cells were resuspended with HBSS to a concentration of 10^6/ml. Cell suspension was diluted in serum containing medium to plate 2000 cells/well/0.2 ml. Cell suspension was transferred to sterile solution basin. Cells were plated using multichannel pipette set at 200 μl and incubated overnight for attachment. One plate was prepared for day 0 MTT assay as follows: 100 μl of media was removed from each well using multichannel pipette and 15 μl of MTT reagent was added. Plates were incubated at 37° C. for 4 hrs. […] of STOP solution was added to each well and incubated at room temperature for 1 hour. Absorbance was measured at 570 and 650 nm on plate reader. All the media from the remaining plates were carefully removed and the cells were treated with the media containing drug. MTT assays were done on days 0, 3, 5 and 7. In the preliminary screening […] BPU sulfur analogs 6l, 6h, 6n, 7d and 8h were screened and their activity was compared with compound 1.
(§2) Compounds with significant inhibitory activity in pancreatic cancer cells were further evaluated against prostate cancer cell lines in the MTT assay, (Mosmann, T., J. Immunol. Methods 65:55-63 (1983)) and the results were compared to those for compound 1 (Table 3).

ASPC1 = assay: MTT growth inhibition, pancreatic cell line ASPC1; assay type: cell-based; conditions: MTT assay, 96 h treatment, average of three independent experiments
Experimental: (§3) Eight of these analogs 6d, 6h, 6n, 6g, 7b, 7d, 8g, and 8h were tested for their cytotoxicity in seven pancreatic cell lines ASPC1, Panc1, Panc203, Panc430, Pane 1005, MiaPaca2, and HS766T using MTT assay. Cells were trypsinized, seeded at 5×10^3 cells/well in 96-well plate and allowed to grow for 24 hours before the treatment with exponential increasing concentrations of drugs in the presence of 10% FBS. After a 96-hours period of treatment, 20 μl of MTT solution (5 mg/ml in PBS) were added to each well, and the plates were then incubated for 3 hours at 37° C. Medium was then replaced with 100 μl of DMSO per well. Plates were shaken and the optical density was measured at 570 nm using a multiwell plate reader (Bio-Rad, Model 550, Bio-Rad Inc., Hercules, Calif.). Each experiment was performed in triplicate for each drug concentration and was carried out independently at least 3 times. The IC50 value was defined as the concentration needed for a 50% reduction in the absorbance calculated based on the survival curves. Response to drug treatment was assessed by standardizing treatment groups to untreated controls. Compounds activity was compared with compound 1.
(§4) Table 2 (Growth Inhibition of Pancreatic Cancer Cell Lines by BPU and BPTU Analogues (IC50) a) compares the cytotoxicity of a series of new derivatives against a panel of seven pancreatic cancer cell lines, as determined by MTT assay. See, Mosmann, T., J. Immunol. Methods 65:55-63 (1983).

Panc203 = assay: MTT growth inhibition, pancreatic cell line Panc203; assay type: cell-based; conditions: MTT assay, 96 h treatment, average of three independent experiments
Experimental: as §3, §4

LnCaP = assay: MTT growth inhibition, prostate cancer cell line LnCaP; assay type: cell-based, human; conditions: MTT assay, average of three independent experiments
Experimental: as §1, §2

Panc430 = assay: MTT growth inhibition, pancreatic cell line Panc430; assay type: cell-based; conditions: MTT assay, 96 h treatment; average of three independent experiments
Experimental: as §3, §4

CWR22R = assay: MTT growth inhibition, prostate cancer cell line CWR22R; assay type: cell-based, human; conditions: MTT assay, average of three independent experiments
tubulin [1] = assay: Inhibition of tubulin polymerization; assay type: biochemical; conditions: Tubulin was at 10 μM; read-out: tubulin IC50 ± SD (inhibition of tubulin polymerization)
Experimental: Briefly, tubulin polymerization was followed turbidimetrically at 350 nm in Beckman model DU7400 and DU7500 recording spectrophotometers equipped with electronic temperature controllers. […] Samples were pre-incubated for 15 min at 30° C. and chilled on ice. GTP (final concentration, 0.4 mmol/L) was added to each reaction mixture, and these were placed in cuvettes held at 0° C. Baselines were established, the temperature was raised to 30° C.

HS766 = assay: MTT growth inhibition, pancreatic cell line HS766; assay type: cell-based; conditions: MTT assay, 96 h treatment, average of three independent experiments
Experimental: as §3, §4

Panc1 = assay: MTT growth inhibition, pancreatic cell line Panc1; assay type: cell-based; conditions: MTT assay, 96 h treatment, average of three independent experiments
Experimental: as §3, §4

Miapaca2 = assay: MTT growth inhibition, pancreatic cell line Miapaca2; assay type: cell-based; conditions: MTT assay, 96 h treatment, average of three independent experiments
Experimental: as §3, §4

Panc1005 = assay: MTT growth inhibition, pancreatic cell line Panc1005; assay type: cell-based; conditions: MTT assay, 96 h treatment, average of three independent experiments
Experimental: as §3, §4

[2] = test system: pancreas cancer xenografts; assay: In vivo growth inhibition of patient-derived pancreas cancer xenografts; parameters: species or system athymic nude mice
Experimental: Six-week-old female athymic nude mice (Harlan) were used. The research protocol was approved by the Johns Hopkins University Animal Care and Use Committee, and animals were maintained in accordance to guidelines of the American Association of Laboratory Animal Care. Surgical non-diagnostic specimens from patients who had undergone surgery at the Johns Hopkins Hospital were implanted s.c. in one to two mice for each patient, with two small pieces per mouse (F1 generation). Tumors were grown to 1.5 cm^3 and then harvested, divided into small ˜3×3×3 mm pieces, and transplanted to another five mice, with two tumors per mouse (F2 generation). After a second growth passage, tumors were excised and propagated to cohorts of ≧20 mice. These groups constituted the F3, or treatment cohort. Tumors from this third mouse-to-mouse passage were allowed to grow to ˜200 mm3, at which time mice were randomized into three treatment groups, with five to six mice (10 evaluable tumors) in each group: control (vehicle), 6n (50 mg/kg i.p. twice per week), and 7d (50 mg/kg i.p. twice per week). Docetaxel treatment was given to selected groups at a dose of 30 mg/kg i.p. once a week for 2 weeks. Mice were monitored daily for signs of toxicity and were weighed thrice per week. Tumor size was evaluated twice per week by caliper measurements using the following formula: tumor volume=[length×width^2]/2. Relative tumor growth inhibition was calculated by relative tumor growth of treated mice divided by relative tumor growth of control mice from the onset of therapy (T/C).
To assess the treatment effect, a hierarchical linear regression model was used with random intercepts and fixed slopes. Based on the results of exploratory plots, the assumption of fixed effects for slopes seemed reasonable. This model allowed for mouse effects to be nested within patient effects so that the hierarchical structure is fully accounted for. Specifically, the following linear regression model was fitted: log(γiJt)=a1ijtimeijt+b2jtimeijt×trtij+βtime^2ijt+eijt where j indexes patient, i indexes mouse, and t indexes time; yijt is the percentage change in tumor volume (compared with day 0) in mouse i, which is a xenograft for patient j at time t; and trtij is treatment (1=treated, 0=control) received by mouse i, which is a xenograft for patient j. […] An intercept and main effect of treatment were not included in the model that makes two assumptions: (a) at time 0, the change from baseline is 0 (which is empirically true), and (b) at baseline, the treated and untreated curves intersect. The model was fit using Win-Bugs software that estimates models using a Markov chain Monte Carlo estimation procedure. A burn-in of 10,000 iterations was done, and then the chain was run for an additional 20,000 iterations, of which every 10th iteration was saved for inference. Several chains were run with different starting values to ensure convergence. No convergence issues arose. The fitted model was used to make inferences with respect to the treatment effect and to create fitted regression lines (rescaled on the Y-axis for clearer interpretation). Point estimates of variables of interest (e.g., expected difference in tumor volume between treated and control at 28 days) and 95% credible intervals were based on the mean of posterior distributions and the 2.5th and 97.5th quantiles of the posterior distribution, respectively. The comparisons between means and proportions obtained from the biological studies were done using Student's t-test and χ^2 method, respectively. ANOVA was used when three or more variables were compared.
Tumors from nine cases of pancreatic cancer were used to establish xenografts in nude mice, and the animals were treated with either vehicle, 6n, or 7d (FIG. 36A). The level of efficacy varied both between drugs and within cases treated with each drug. FIG. 37 provides an integrated summary of all data points obtained in the studies. […]

MCF-7 cells = assay: Apoptosis of MCF-7 cells; assay type: cell-based; conditions: 48 hours
tubulin [3] = assay: Inhibition of [3H]colchicine binding; conditions: Tubulin 1 μM; [3H]colchicine and inhibitor at 5 μM
[4] = test system: seven pancreatic cell lines; assay: MTT cytotoxicity, panel of seven pancreatic cancer cell lines; assay type: cell-based; conditions: Pancreatic cancer cell, all seven pancreatic cell lines
Experimental: as §3, §4

SMILES | IC50 (LAPC-4) [µM] | IC50 (ASPC1) [µM] | IC50 (Panc203) [µM] | IC50 (LnCaP) [µM] | IC50 (Panc430) [µM] | IC50 (CWR22R) [µM] | IC50 (Panc1) [µM] | IC50 (Miapaca2) [µM] | IC50 (Panc1005) [µM] | IC50 (ASPC1; Homo sapiens, ASPC1) [µM] | IC50 (Panc203; Homo sapiens, Panc203) [µM] | IC50 (Panc1; Homo sapiens, PANC-1) [µM] | IC50 (Miapaca2; Homo sapiens, MIA PaCa-2) [µM] | IC50 (Panc1005; Homo sapiens, Panc1005) [µM] | IC50 (tubulin [1]) [µM] | IC50 (HS766) [µM] | IC50 (HS766; Homo sapiens, Hs 766) [µM] | further results
CC(=O)O[C@@]12CO[C@@H]1C[C@H](O)[C@@]1(C)C(=O)[C@H](O)C3=C(C)[C@@H](OC(=O)[C@H](O)[C@@H](NC(=O)OC(C)(C)C)c4ccccc4)C[C@@](O)([C@@H](OC(=O)c4ccccc4)[C@H]21)C3(C)C [Docetaxel, docetaxel, reference compound] | – | – | – | – | – | – | – | – | – | – | – | – | – | – | – | – | – | efficacy in case 194 ([2]; case with the greatest expression of MAPT): inactive; efficacy in case 185 ([2]; docetaxel 30 mg/kg i.p. once a week for 2 weeks): lower efficacy than 6n; efficacy in case 215 ([2]; low MAPT-expressing case, docetaxel 30 mg/kg i.p. once a week for 2 weeks): particularly efficacious
Cc1cc(NC(=O)NC(=O)c2ccccc2N(C)C)ccc1Oc1ncc(Br)cn1 [Compound 1, reference compound] | 0.25 | 0.85 | 0.95 | 0.5 | 0.8 | 1 | 0.7 | 0.85 | 5 | – | – | – | – | – | – | 1 | – | rate of apoptosis (MCF-7 cells; 10 nM): 16.1%; rate of apoptosis (MCF-7 cells; 30 nM): 19.5%; rate of apoptosis (MCF-7 cells; 100 nM): 27.7%
O=C(NC(=O)c1ccccc1[N+](=O)[O-])Nc1ccc(Oc2nccc(Br)n2)cc1 [Compound 6m] | 0.2 | 0.77 | > 10 | 1 | 10 | 5 | 0.68 | 0.74 | > 10 | – | – | – | – | – | 4.7 | 0.47 | – | colchicine binding (% ± SD), inhibition of [3H]colchicine binding (tubulin [3]): 21 ± 5%
Brc1cnc(Sc2ccc(N=CSN=COc3ccccc3)cc2)nc1 [Compound 6h] | – | – | – | – | 7.5 | – | – | – | – | 10 | > 10 | 9.5 | 10 | > 10 | – | – | 8.5 | IC50 (LAPC-4; Homo sapiens, LAPC4): 6 µM; IC50 (LnCaP; Homo sapiens, LNCaP): > 10 µM; IC50 (CWR22R; Homo sapiens, 22Rv1): > 10 µM

Continued, in another order:

IC50 (LAPC-4) [µM] | IC50 (ASPC1) [µM] | IC50 (Panc203) [µM] | IC50 (LnCaP) [µM] | IC50 (Panc430) [µM] | IC50 (CWR22R) [µM] | IC50 (Panc1) [µM] | IC50 (Miapaca2) [µM] | IC50 (Panc1005) [µM] | IC50 (ASPC1; Homo sapiens, ASPC1) [µM] | IC50 (Panc203; Homo sapiens, Panc203) [µM] | IC50 (Panc1; Homo sapiens, PANC-1) [µM] | IC50 (Miapaca2; Homo sapiens, MIA PaCa-2) [µM] | IC50 (Panc1005; Homo sapiens, Panc1005) [µM] | SMILES | IC50 (tubulin [1]) [µM] | IC50 (HS766) [µM] | IC50 (HS766; Homo sapiens, Hs 766) [µM] | further results
0.75 | 5.2 | > 10 | 0.75 | > 10 | 2 | 3.5 | 0.92 | > 10 | – | – | – | – | – | Nc1ccccc1C(=O)NC(=O)Nc1ccc(Oc2nccc(Br)n2)cc1 [Compound 7c] | 36 ± 0.7 | 0.27 | – | –
– | – | – | – | 5.5 | – | – | – | – | 2.5 | 5.5 | 6.5 | 8 | 5.5 | O=[N+]([O-])c1ccccc1OC=NOC=Nc1ccc([S+]([O-])c2ncc(Br)cn2)cc1 (stereo not drawn) [Compound 8g] | – | – | 6.5 | IC50 [4]: 2.5 to 8 µM
